Target: T1, Kinesin-like protein KIF18A (Homo sapiens, UniProt Q8NI77)
T1 sequence (Q8NI77 whole entry): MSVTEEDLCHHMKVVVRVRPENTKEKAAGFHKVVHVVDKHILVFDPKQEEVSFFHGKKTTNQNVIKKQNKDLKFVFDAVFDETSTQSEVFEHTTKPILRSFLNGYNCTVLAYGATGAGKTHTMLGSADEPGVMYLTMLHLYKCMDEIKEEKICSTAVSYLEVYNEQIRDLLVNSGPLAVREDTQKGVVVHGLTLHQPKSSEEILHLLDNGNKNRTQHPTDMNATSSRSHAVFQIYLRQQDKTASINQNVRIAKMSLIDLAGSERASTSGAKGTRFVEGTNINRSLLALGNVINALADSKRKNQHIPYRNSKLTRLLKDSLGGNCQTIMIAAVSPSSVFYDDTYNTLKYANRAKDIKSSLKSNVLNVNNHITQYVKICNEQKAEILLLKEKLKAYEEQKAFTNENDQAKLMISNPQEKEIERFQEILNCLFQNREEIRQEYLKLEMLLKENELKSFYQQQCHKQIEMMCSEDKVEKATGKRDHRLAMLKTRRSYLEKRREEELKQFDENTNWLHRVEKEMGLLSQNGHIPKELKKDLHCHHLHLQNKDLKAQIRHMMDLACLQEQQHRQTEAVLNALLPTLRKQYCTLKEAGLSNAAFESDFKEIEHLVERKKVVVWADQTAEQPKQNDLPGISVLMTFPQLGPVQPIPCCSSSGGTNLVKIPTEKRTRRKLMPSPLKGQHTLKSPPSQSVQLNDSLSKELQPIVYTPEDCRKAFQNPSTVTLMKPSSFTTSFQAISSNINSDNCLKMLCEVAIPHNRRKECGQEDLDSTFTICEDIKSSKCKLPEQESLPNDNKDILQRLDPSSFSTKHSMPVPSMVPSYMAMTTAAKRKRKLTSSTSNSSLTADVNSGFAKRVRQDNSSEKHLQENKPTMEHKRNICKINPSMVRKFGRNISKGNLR
Assay: Assay of the Inhibitory Effects on KIF18A Activity In Vitro (ADP-Glo Assay)
Method: Experimental Method 1. Preparation of 30 mL of reaction buffer: (1) 450 μL 1M Tris-HCl (pH=7.5)+300 μL 1M MgCl2+30 μL 10% Pluronic F-68 (ThermoFisher, 24040032-100 ml); (2) adjusting pH to 7.5, and adding water to adjust the volume to 30 mL. 2. Preparation of a 5 mg/mL pig microtubule (Microtubules; MT) (Cytoskeleton Inc, MT002) stock solution: (1) 10 mL PM buffer=150 μL 1 M PIPES (pH 7.0)+20 μL 0.5 mM MgCl2+100 μL 2 mM Taxol (Cytoskeleton Inc, TXD01)+9730 μL water. (2) MT (500 ag/tube): Adding 100 μL PM buffer to prepare a 5 mg/mL stock solution. Keeping the MT (Cytoskeleton Inc, MT002) at room temperature for 10-15 minutes, gently mixing and storing same at −80° C. 3. Preparation of 2 mL of kinase buffer: 2 mL reaction buffer+1 μL 2 mM Taxol (Cytoskeleton Inc, TXD01)+12 μL 5 mg/mL MT (Cytoskeleton Inc, MT002). 4. Preparation of 2×KIF18A (30 nM) (ChemPartner, CPB-P22-31645) working solution: 2.4 μL 10 μM KIF18A (ChemPartner, CPB-P22-31645)+800 μL 1× kinase buffer. 5. Preparation of 2×ATP (150 μM) (Promega, G9101) working solution: 12 μL 10 mM ATP+800 μL 1× kinase buffer. 6. 25 nL of compound was transferred to a 384-well plate using Echo650. 7. 2.5 μL of 2×KIF18A from Step 4 (final concentration of 30 nM) was added to the 384-well plate and the plate was incubated at 25° C. for 15 minutes. 8. 2.5 μL of 2×ATP from Step 5 (final concentration of 150 μM) was added to the 384-well plate and the plate was incubated at 25° C. for 15 minutes. 9. 5 μL ADP-Glo™ Reagent (Promega, G9101) was added to the 384-well plate and the plate was incubated at 25° C. for 40 minutes. 10. 10 μL of kinase detection reagent (Promega, G9101) was added to the 384-well plate and the plate was incubated at 25° C. for 40 minutes. 11. Luminescence values were measured using the EnVision Xcite Multilabel Reader (PerkinElmer, 2105-0020).

IC50 | SMILES
< 50 nM | COc1ccc(NC(=O)c2ccc(NS(=O)(=O)CCO)cc2N2CCC3(CC2)CC3)c2cc3n(c12)CCOC3 [US20260070887, Example 404]
< 50 nM | COC1c2cc3c(NC(=O)c4ccc(NS(=O)(=O)CCO)cc4N4CCC(=C(F)F)CC4)ccc(C#N)c3n2CCC1(F)F (centres undefined) [US20260070887, Example 427]
in the range around 275 nM | Nc1ccc(S(=O)(=O)Nc2ccc(C(=O)Nc3ccnc4c3CCN4CC3CC3)c(N3CCC4(CC3)CC4)c2)c(CCO)c1 [US20260070887, Example 32]
< 50 nM | COc1ccc(C(=O)Nc2cccc3c2ccn3CC2CC2)c(N2CCC3(CC2)CC3)c1 [US20260070887, Example 127]
in the range around 275 nM | CC1(C)Cn2c(cc3c(NC(=O)c4ccc(NS(=O)(=O)c5ccc(N)cc5CCO)cc4N4CCC5(CC4)CC5)ccc(F)c32)CO1 [US20260070887, Example 519]
< 50 nM | CC1(C)Cn2c(cc3c(NC(=O)c4cnc(NS(=O)(=O)CCO)cc4N4CCC5(CC4)CC5)cccc32)CO1 [US20260070887, Example 454]
< 50 nM | Nc1ccc(S(=O)(=O)Nc2ccc(C(=O)Nc3ccnc4c3ccn4CC3CC3)c(N3CCC4(CC3)CC4)c2)c(CCO)c1 [US20260070887, Example 33]
< 50 nM | COc1ccc(NC(=O)c2ccc(NS(=O)(=O)CCO)cc2N2CCC3(CC2)CC3)c2cc3n(c12)CCC(F)(F)C3 [US20260070887, Example 478]
< 50 nM | CC1(C)Cn2c(cc3c(NC(=O)c4ccc(NS(=O)(=O)CCO)cc4N4CCC(=C(F)F)CC4)ccc(Cl)c32)CO1 [US20260070887, Example 522]

Source: BindingDB's records for patent US20260070887 (Shenzhen Zhongge Biological Technology Co., 2026)
